Measurements: patent publication US11896673B2, “Glucose responsive insulin delivery compositions and methods” (NORTH CAROLINA STATE UNIVERSITY, priority 2016, dated 2024)

Tests used:
healthy mice = assay: Hypoglycemia study in healthy mice under normoglycemic conditions; details: mouse, in vivo
Experimental: FIG. 8F is a bar graph showing the quantification of the hypoglycemia index, calculated from the difference between the initial and nadir BG readings divided by the time at which nadir was reached. The error bars are based on the SD of five mice per group. (P values: *P<0.05) Next, the potential for insulin−mRBCs to induce hypoglycemia was studied in healthy mice under normoglycemic conditions (FIG. 8E). […] The corresponding hypoglycemia index was calculated to assess the risk of hypoglycemia (Yu J, et al. Proc. Natl. Acad. Sci. U.S.A. 112, 8260-8265 (2015); Chou DH-C, et al. Proc. Natl. Acad. Sci. U.S.A. 112, 2401-2406 (2015)).

[1] = test system: STZ-induced type 1 diabetic mice; assay: In vivo bioactivity comparison of native insulin and Glu-Insulin; details: same insulin concentration 5 mg/kg
From the text: Glucose was conjugated to insulin via a bifunctional maleimide linker (FIG. 2). Glu-Insulin was clearly identified by the sodium dodecyl sulfate polyacrylamide gel electrophoresis (SDS-PAGE) and matrix-assisted laser desorption/ionization mass spectrometry (MALDI MS) (FIG. 3A-B). As calculated by MALDI-MS, two glucose molecules are conjugated to each insulin molecule (feed molar ratio of glucose to insulin: 100:1). […] In short, the modification of insulin with glucose has a statistically insignificant impact on bioactivity relative to unmodified insulin.

[2] = test system: STZ-induced diabetic mice; assay: Blood glucose levels in STZ-induced diabetic mice after treatment; assay type: in vivo; details: i.v., 5 mg/kg insulin
Experimental: In Vivo Studies Using STZ-Induced Diabetic Mice. STZ-induced male C57B6 diabetic mice were purchased from Jackson Labs (USA) and used under protocols approved by the Institutional Animal Care and Use Committee at North Carolina State University. For in vivo circulating behavior of insulin-RBC, mRBCs were coupled with FITC after loading with insulin, 3 mice were injected i.v. with autologous insulin−mRBCs. Then ˜3 μL of blood was extracted from the tail vein at different time points and then dispersed in 0.5 mL of PBS with anticoagulants. Flow cytometry measurement was applied to determine the percentages of insulin−mRBCs (positive in FITC) in the blood samples. […] The BG level was measured from tail vein blood samples (approximately 3 μL) of mice using the Clarity GL2Plus glucose meter (Clarity Diagnostics) at different time points. […] Plasma insulin concentrations were determined using the human insulin ELISA kit (Calbiotech, USA). The efficacy of insulin−mRBCs for treatment of hyperglycemia in STZ-induced type 1 diabetic mice (Like, A A, et al. Science 193, 415-417 (1976)) was also assessed. […] The BG levels of treated mice were then monitored over time.

GLUT1 = biological target: T1, GLUT1 (Rattus norvegicus, UniProt P11167); assay: Binding of free GLUT1 protein and Glu-Insulin in vitro (centrifugal filter); details: overnight incubation, MWCO=10 kDa filter
T1 construct: His6 (pET-28a vector-encoded) (N); T7 tag (pET-28a vector-encoded, upstream of BamHI site) (N); made in house; host or cells: E. coli Rosetta (DE3) pLysS
T1 sequence (P11167 1-492): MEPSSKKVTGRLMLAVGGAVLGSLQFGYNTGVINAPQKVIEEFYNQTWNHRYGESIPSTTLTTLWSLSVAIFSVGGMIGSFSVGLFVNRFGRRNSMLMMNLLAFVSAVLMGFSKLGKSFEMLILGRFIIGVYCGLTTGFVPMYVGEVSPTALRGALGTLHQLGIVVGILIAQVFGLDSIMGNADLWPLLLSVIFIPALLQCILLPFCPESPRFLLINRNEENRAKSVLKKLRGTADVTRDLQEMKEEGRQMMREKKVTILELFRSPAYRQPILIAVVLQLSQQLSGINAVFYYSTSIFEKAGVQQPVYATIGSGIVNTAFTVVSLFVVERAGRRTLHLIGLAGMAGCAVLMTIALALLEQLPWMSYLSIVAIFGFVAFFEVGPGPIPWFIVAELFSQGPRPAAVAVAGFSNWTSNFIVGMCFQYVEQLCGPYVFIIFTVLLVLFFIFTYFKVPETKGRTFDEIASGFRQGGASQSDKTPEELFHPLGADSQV
Experimental: Glucose modified insulin was mixed with GLUT1 protein at a molar ratio of 1.2:1 for 12 hours at 4° C. Free Glu-insulin were removed by the centrifugal filter device (MWCO=10 kDa). The obtained Glu-Insulin was stored at 4° C. until use. We first examined the specific binding affinity of free GLUT1 proteins and Glu-Insulin in vitro. We incubated the GLUT1 with Glu-Insulin overnight, free Glu-Insulin was removed by centrifugal filter device (MWCO=10 kDa).

mRBCs [3] = test system: mRBCs
Experimental: The mRBCs were incubated with Glu-Insulin overnight and imaged using the confocal fluorescence microscope to determine whether Glu-Insulin can bind to mRBCs via the specific glucose-GLUT binding.

mRBCs [4] = assay: Binding/loading of Glu-Insulin to mouse RBCs (confocal, flow cytometry, ELISA); details: incubated overnight, confocal fluorescence microscopy
Experimental: Preparation of insulin loaded RBCs. Whole blood was collected from the B16 mice or from a human volunteer (The study protocol was approved by the Institutional Review Board at North Carolina State University). RBCs were separated from the whole blood by centrifugation (1000 g, 10 min) and washed thrice with cold PBS (300 mOsm, pH=8.0) to remove the glucose intracellularly. To load the insulin to RBC membrane, Glu-Insulin (0.5 mg/ml) was incubated with […] RBCs (1×10^8) under gentle stirring at 4° C. overnight. RBCs were washed thrice with cold PBS (300 mOsm, pH 8) to remove the unconjugated Glu-Insulin. Bound insulin was determined by ELISA assay.

[5] = test system: STZ-induced diabetic mice; assay: Intraperitoneal glucose tolerance test (IPGTT) 1.5 h after administration; assay type: in vivo; details: IPGTT 1.5 hours after i.v. administration
Experimental: In Vivo Studies Using STZ-Induced Diabetic Mice. STZ-induced male C57B6 diabetic mice were purchased from Jackson Labs (USA) and used under protocols approved by the Institutional Animal Care and Use Committee at North Carolina State University. For in vivo circulating behavior of insulin-RBC, mRBCs were coupled with FITC after loading with insulin, 3 mice were injected i.v. with autologous insulin−mRBCs. Then ˜3 μL of blood was extracted from the tail vein at different time points and then dispersed in 0.5 mL of PBS with anticoagulants. Flow cytometry measurement was applied to determine the percentages of insulin−mRBCs (positive in FITC) in the blood samples. […] The BG level was measured from tail vein blood samples (approximately 3 μL) of mice using the Clarity GL2Plus glucose meter (Clarity Diagnostics) at different time points. […] Plasma insulin concentrations were determined using the human insulin ELISA kit (Calbiotech, USA). […] To quantitate the glucose response to the various insulin formulations (Yu J, et al. Proc. Natl. Acad. Sci. U.S.A. 112, 8260-8265 (2015); Chou DH-C, et al. Proc. Natl. Acad. Sci. U.S.A. 112, 2401-2406 (2015)), the area under the curve was calculated for each group between 90 and 200 min. […] Furthermore, plasma insulin levels of diabetic mice were monitored over time by ELISA after IPGTT (FIG. 8D).

binding of Glu-Insulin to mRBCs (mRBCs [4]): bound to the mRBCs
Substance: Glu-Insulin: human recombinant insulin conjugated to two glucose (glucosamine) molecules via a bifunctional maleimide (Sulfo-SMCC/thiol) linker
BG levels in healthy mice (healthy mice): significantly decreased BG levels compared to insulin−mRBCs treated mice
bioactivity profile relative to native insulin [1]: do not display any significant difference in their bioactivity profiles
BG level recovered within 24 h [2]: ~500 mg/dL
BG level within 1 h [2]: < 70 mg/dL
binding of Glu-Insulin to free GLUT1 protein (GLUT1): insulin signals could be detected in supernatant if co-incubated with GLUT1 proteins
damage to mRBCs by insulin binding (annexin V) (mRBCs [3]): does not cause significant damage to mRBCs
BG response after IPGTT [5]: only exhibited a fleeting response
